Measurements published in patent US9630939B2, “Derivative of homoserine lactone, and preparation method and use thereof” (priority 2013, dated 2017).

Experiments:
C. violaceum CV026 [1] = test: Preliminary screening of bacterial quorum sensing agonistic / inhibitory activity on LB plate (purple stain / white circle); assay type: cell-based; settings: for Regulatory activity (bacterial quorum sensing): 1 μl of 0.065M compound spotted on LB plate with C. violaceum CV026, without (agonistic) or with inducer C6-HSL (inhibitory), 30° C., 16-18 h
Description: 1.1 Preparation work: different compounds to be tested (Compounds 1-29 prepared in Example 1-29 and intermediates 1-3) were weighted and then were dissolved in 200 μl DMSO (dimethyl sulfoxide) to prepare a solution at a concentration of 0.065M. 5.0 mg inducer, N-hexanoyl homoserine lactone (C6-HSL, purchased from Sigma Company), was weighted and was dissolved in 200 μl DMSO (at a concentration of 0.125M), and the compounds and the inducer were stored at 4[…] for further use. C. violaceum CV026 (donated by Professor McLean J C from Texas State University) in LB culture medium (LB culture medium consisting of 1% (percentage by mass) tryptone, 0.5% (percentage by mass) yeast extract, 1% (percentage by mass) NaCl and water) was cultured under shaking in a shaker at 30 °C, 200 rpm to get the culture medium for further use.
1.2 Method for preliminary screening of compounds having agonistic activity: 400 μl C. violaceum CV026 (at a bacterial concentration of 1×10^8/ml) was added to 5 ml melted semi-solid LB culture medium, and was mixed well; the mixed culture medium was poured into a solid LB plate; when the mixed culture medium was solidified on the plate, lattice was made thereon; 1 μl of the dissolved compounds to be tested (Compounds 1-29 in Examples 1-29, at a concentration of 0.065M) was spotted on the plate; when the compounds on the plate was dried in air, the plate was put in a 30° C. oven upside down and was cultured for a period of 16-18 h. If the compound to be tested has an agonistic effect on C. violaceum CV026 on the LB plate, purple stain will be induced on the LB plate. The agonistic activity of a compound is determined depending on whether purple stain is induced for C. violaceum CV026 on LB plate as well as the purple depth.
1.3 Method for preliminary screening of compounds having inhibitory activity: the inducer C6—HSL was diluted gradiently to 1000 times by means of 2-fold dilution; 15 μl diluted inducer and 400 μl C. violaceum CV026 in exponential phase (at a bacterial concentration of 1×10^8/ml) were mixed well and then were added to a 5 ml melted semi-solid LB culture medium; the mixture of inducer, C. violaceum, and semi-solid LB was poured onto a solid LB plate; when the mixture was solidified on the plate, lattice was made thereon; 1 μl of the dissolved compounds to be tested (Compounds 1-29 prepared in Example 1-29 and intermediates 1-3, at a concentration of 0.065M) was spotted on the plate; when the compounds on the plate were dried in air, the plate was put in a 30° C. oven upside down and was cultured for a period of 16-18 h. […] The inhibitory activity of a compound is preliminary determined depending on the size of the white circle appeared after C. violaceum CV026 was inhibited on LB plate.

C. violaceum CV026 [2] = test: Measurement of IC50 of compounds having an inhibitory effect on C. violaceum quorum sensing (purple pigment absorbance at 585 nm); assay type: cell-based; settings: Chromobacterium violaceum, read-out: IC50 of compounds having bacterial quorum sensing inhibitory activity
Description: 2.1 The wells of a 12-well plate were marked as initial concentration, 2, 4, 8, 16, 32, 64, 128, 256, DMSO group, and a blank control group from left to right and from up to bottom, respectively.
2.2 The monoclonal C. violaceum CV026 grew on LB solid plate was cultured to exponational phase in a 5 ml fresh LB liquid culture medium, 50 μl was then taken for seeding in a 5 ml LB culture medium, and was cultured until the optical density OD value was about 1.0 at 585 nm; the culture was then mixed well with LB culture medium at a ratio of 1:9 by volume (with OD of about 0.15), and was added to a 12-well plate in an amount of 2 ml/well.
2.3 The compounds preliminarily screened to have quorum sensing inhibitory activity were dissolved respectively in DMSO (at a concentration of 0.065M), and then 10 μl was taken into 10 μl DMSO solution to achieve the purpose of 2-fold dilution, and so on. Each compound was gradiently diluted to a highest fold of 256 (gradient dilution of 2, 4, 8, 16, 32, 64, 128, 256 fold).
2.4 To each well, 15 μl 1000-fold diluted inducer C6—HSL (initial concentration of 0.125M) and 8 μl compound solution at each diluted gradient was added; to DMSO control group, 8 μl DMSO was added; to a blank control group, 8 μl LB culture medium was added. Finally, it was ensured that 2 ml culture in each of the 12-well plate was mixed well.
2.5 The 12-well plate was placed in a 30° C. shaker at 130 rpm and was cultured for 10-12 h.
2.6 After the culture was finished, 1 ml culture was taken from each well and was put in a 1.5 ml EP tube and then was centrifugated at 12000 rpm for 10 mins. The supernatant of the culture was sucked out, and 500 μl DMSO was added to each EP tube to dissolve the purple pigment in the culture. After the pigment was completely dissolved, centrifugation was performed at 12000 rpm for 10 mins. 200 μl supernatant pigment was put in a 96-well culture plate, and was measured for absorbance value at 585 nm by a Microplate Reader, […] the absorbance value and the corresponding concentration were plotted to get the IC50 value.

Row | SMILES | melting point [°C] | Regulatory activity (bacterial quorum sensing) (C. violaceum CV026 [1]) | IC50 (C. violaceum CV026 [2]) [µM] | inhibitory or agonizing effect on bacterial quorum sensing (in words) (C. violaceum CV026 [1])
1 | CCCc1ccc(C(=O)Nc2ccc(S(=O)(=O)N[C@H]3CCOC3=O)cc2)cc1 | 247 to 249 |  |  | 
2 | N#Cc1ccc(C(=O)Nc2ccc(S(=O)(=O)N[C@H]3CCOC3=O)cc2)cc1 | 230 to 231 |  |  | 
3 | O=C(Cc1ccccc1)Nc1ccc(S(=O)(=O)N[C@H]2CCOC2=O)cc1 | 157 to 158 |  |  | 
4 | CCOc1ccc(C(=O)Nc2ccc(S(=O)(=O)N[C@H]3CCOC3=O)cc2)cc1 | 256 to 258 |  |  | 
5 | O=C(Nc1ccc(S(=O)(=O)N[C@H]2CCOC2=O)cc1)c1ccc([N+](=O)[O-])cc1 | 257 to 258 |  |  | 
6 | CCCCCCCCC(=O)Nc1ccc(S(=O)(=O)N[C@H]2CCOC2=O)cc1 | 150 to 152 |  |  | 
7 | CCC(=O)Nc1ccc(S(=O)(=O)N[C@H]2CCOC2=O)cc1 [Compound 1, (S)-N-(4-(N-(2-oxotetrahydrofuran-3-yl)sulfamoyl)phenyl) propanamide] | 179 to 181 | − |  | 
8 | CCCC(=O)Nc1ccc(S(=O)(=O)N[C@H]2CCOC2=O)cc1 [Compound 2, (S)-N-(4-(N-(2-oxotetrahydrofuran-3-yl)sulfamoyl)phenyl)butyrylamide] | 180 to 182 | − |  | 
9 | CCCCC(=O)Nc1ccc(S(=O)(=O)N[C@H]2CCOC2=O)cc1 [Compound 3, (S)-N-(4-(N-(2-oxotetrahydrofuran-3-yl)sulfamoyl)phenyl)pentanamide] | 174 to 176 | − |  | 
10 | CCCCCC(=O)Nc1ccc(S(=O)(=O)N[C@H]2CCOC2=O)cc1 [Compound 4, (S)-N-(4-(N-(2-oxotetrahydrofuran-3-yl)sulfamoyl)phenyl)hexanamide] | 142 to 143 | − | 29 ± 2.41 | 
11 | CCCCCCC(=O)Nc1ccc(S(=O)(=O)N[C@H]2CCOC2=O)cc1 [Compound 5, (S)-N-(4-(N-(2-oxotetrahydrofuran-3-yl)sulfamoyl)phenyl)heptamide] | 143 to 144 | − |  | 
12 | CCCCCCCC(=O)Nc1ccc(S(=O)(=O)N[C@H]2CCOC2=O)cc1 [Compound 6, (S)-N-(4-(N-(2-oxotetrahydrofuran-3-yl)sulfamoyl)phenyl)octanamide] | 146 to 148 | − |  | 
13 | O=C(Nc1ccc(S(=O)(=O)N[C@H]2CCOC2=O)cc1)c1ccccc1 [Compound 9, (S)-N-(4-(N-(2-oxotetrahydrofuran-3-yl)sulfamoyl)phenyl)benzamide] |  | − | 17.2 ± 2.6 | 
14 | O=C(Nc1ccc(S(=O)(=O)N[C@H]2CCOC2=O)cc1)c1ccc(Br)cc1 [Compound 12, (S)-4-bromo-N-(4-(N-(2-oxotetrahydrofuran-3-yl)sulfamoyl)phenyl)benzamide] | 112 to 113 | ± |  | both an agonizing effect and an inhibitory effect
15 | O=C(Nc1ccc(S(=O)(=O)N[C@H]2CCOC2=O)cc1)c1ccc(Cl)cc1 [Compound 14, (S)-4-chloro-N-(4-(N-(2-oxotetrahydrofuran-3-yl)sulfamoyl)phenyl)benzamide] |  | − |  | 
16 | O=C(Nc1ccc(S(=O)(=O)N[C@H]2CCOC2=O)cc1)c1ccc(CCl)cc1 [Compound 15, (S)-4-(chloromethyl)-N-(4-(N-(2-oxotetrahydrofuran-3-yl)sulfamoyl)phenyl)benzamide] | 251 to 253 | + |  | agonizing effect
17 | CC(C)(C)c1ccc(C(=O)Nc2ccc(S(=O)(=O)N[C@H]3CCOC3=O)cc2)cc1 [Compound 16, (S)-4-(tert-butyl)-N-(4-(N-(2-oxotetrahydrofuran-3-yl)sulfamoyl)phenyl)benzamide] | 207 to 208 | − |  | 
18 | O=C(Nc1ccc(S(=O)(=O)N[C@H]2CCOC2=O)cc1)c1ccc(F)cc1 [Compound 17, (S)-4-fluoro-N-(4-(N-(2-oxotetrahydrofuran-3-yl)sulfamoyl)phenyl)benzamide] | 236 to 237 | − | 14.7 ± 2.58 | 
19 | Cc1cccc(C(=O)Nc2ccc(S(=O)(=O)N[C@H]3CCOC3=O)cc2)c1 [Compound 20, (S)-3-methyl-N-(4-(N-(2-oxotetrahydrofuran-3-yl)sulfamoyl)phenyl)benzamide] | 193 to 194 | − |  | 
20 | O=C(Nc1ccc(S(=O)(=O)N[C@H]2CCOC2=O)cc1)c1cccc(Cl)c1 [Compound 22, (S)-3-chloro-N-(4-(N-(2-oxotetrahydrofuran-3-yl)sulfamoyl)phenyl)benzamide] | 213 to 214 | − |  | 
21 | O=C(Nc1ccc(S(=O)(=O)N[C@H]2CCOC2=O)cc1)c1cccc(F)c1 [Compound 23, (S)-3-fluoro-N-(4-(N-(2-oxotetrahydrofuran-3-yl)sulfamoyl)phenyl)benzamide] |  | − | 7.79 ± 2.68 | 
22 | O=C(Nc1ccc(S(=O)(=O)N[C@H]2CCOC2=O)cc1)c1ccccc1F [Compound 24, (S)-2-fluoro-N-(4-(N-(2-oxotetrahydrofuran-3-yl)sulfamoyl)phenyl)benzamide] |  | − | 1.64 ± 0.27 | 
23 | O=C(Nc1ccc(S(=O)(=O)N[C@H]2CCOC2=O)cc1)c1ccccc1C(F)(F)F [Compound 27, (S)-2-trifluoromethyl-N-(4-(N-(2-oxotetrahydrofuran-3-yl)sulfamoyl)phenyl)benzamide] | 186 to 187 | − | 4.91 ± 0.97 | 
24 | O=C(Nc1ccc(S(=O)(=O)N[C@H]2CCOC2=O)cc1)c1ccccc1Cl [Compound 28, (S)-2-chloro-N-(4-(N-(2-oxotetrahydrofuran-3-yl)sulfamoyl)phenyl)benzamide] |  | − | 1.66 ± 0.33 | 
25 | Br.NC1CCOC1=O (stereo not drawn) [Intermediate 1, (L)-homoserine lactone hydrobromide] |  | + |  | 
26 | CC(=O)Nc1ccc(S(=O)(=O)N[C@H]2CCOC2=O)cc1 [Intermediate 2, (S)-N-(4-(N-(2-oxotetrahydrofuran-3-yl)sulfamoyl)phenyl)acetamide] |  | − |  | 
